Results reported in patent US20230150951A1, “2,5- OR 2,6-DISUBSTITUTED HYDROQUINONE DERIVATIVES WITH AT LEAST ONE CARBOXY, SULFO OR AMIDO GROUP USEFUL AS MEDICAMENTS” (OM PHARMA SA, priority 2020, published 2023).
pIC50: −log10 of the molar value.

Experiments:
[1] = Prodrug stability in mouse plasma; assay type: in vitro ADME; conditions: for remaining after 1 h (mouse plasma): ester cleaved; for half-life: read-out: T1/2 (mouse plasma)
[2] = Prodrug stability in human plasma; assay type: in vitro ADME; conditions: read-out: T1/2 (human plasma)
ARPE-19 cells [3] = experiment: Outer blood retinal barrier: ARPE-19 monolayer permeability to FITC-dextran; assay type: cell-based, human
Text: (§1) The mechanisms of actions involved in the anti-permeability effect of the tested treatments were explored by assessing permeability to fluorescent dextran and proinflammatory cytokines production using their mRNA expression levels by RT-PCR.
(§2) Outer Blood Retinal Barrier conditions: human retinal pigment epithelial cells (RPE) cultures ARPE-19, a spontaneously immortalised human RPE cell line were obtained from American Type Culture Collection (Manassas, Va., USA). ARPE-19 cells and they were cultured in euglycaemic conditions (D-glucose (D-Glc), 5.5 mmol/L) and hyperglycaemic conditions (D-glucose, 25 mmol/L) for 18 days at 37° C. under 5% (vol./vol.) CO2 in medium (DMEM/F12) supplemented with 10% (vol./vol.) FBS (Hyclone; Thermo Fisher Scientific, UT, USA) and 1% (vol./vol.) penicillin/streptomycin (Hyclone; Thermo Fisher Scientific). ARPE-19 cells from passage 20 were used and the medium changed every 3-4 days. For permeability studies, ARPE-19 cells were seeded at 400,000 cells/ml (80,000 RPE cells/well) in 0.33 cm^2 HTS-Transwells (Costar; Corning, N.Y., USA). For real-time PCR, western blot analysis and immunofluorescence cells are seeded at 20,000 cells/ml.
(§3) Experimental conditions and treatments: apart from the euglycemic condition, eighteen different conditions were tested in cells cultured under 25 mmol/L D-glucose:
Condition 2) Cells are treated with diabetic milieu 25 mM D-Glucose+vehicle (days 15, 16 and 17 at one application/day) in order to evaluate their effect in preventing the cell damage provoked by the diabetic milieu.
Condition 9) Cells were treated with 25 mM D-Glucose and bevacizumab (0.2 mg/ml) for 72 h (days 15, 16 and 17 at one application/day) to evaluate their potential cytotoxic effects.
Condition 10)=Diabetic milieu; cells were treated with 25 mM D-Glucose+[…] (10 ng/ml)+TNF-α (25 ng/ml)+VEGF (25 ng/ml), for 48 h (days 16 and 17 at one application/day) in order to provoke the disruption of the monolayer.
Condition 17) Cells are treated with diabetic milieu (25 mM D-Glucose+IL-1β (10 ng/ml)+TNF-α (25 ng/ml)+VEGF (25 ng/ml))+bevacizumab (0.2 mg/mL) (days 15, 16 and 17 at one application/day) in order to evaluate their effect in preventing the cell damage provoked by the diabetic milieu.
Measurement of ARPE-19 permeability: The permeability of RPE cells was determined at 18 days by measuring the apical-to basolateral movements of FITC-dextran (40 kDa) (Sigma, St Louis, […]., USA) following a procedure previously reported by Villarroel et al. Exp Eye Res, 2009, 89, 913-920.

[4] = test system: human retinal endothelial cells (HRECs); experiment: Inner blood retinal barrier: HREC monolayer permeability to FITC-dextran; assay type: cell-based
Text: as §1
Inner Blood Retinal Barrier conditions: primary human retinal endothelial cells (HRECs) were obtained from a vial of cryopreserved cells purchased from Innoprot (Vizcay, Spain). These cells were isolated from human retinal tissue of cadaveric eyes digested with 0.1 mg/mL collagenase type I at 37° C. for 1 hour. Then, endothelial cells were finally selected with CD31 antibody-coated magnetic beads (DynaBeads; Dynal, Oslo, Norway). HRECs were thawed in the laboratory and cultured in endothelial basal medium (EBM) containing, 5.5 mM D-glucose, 5% FBS (Fetal Bovine Serum), 100 U/mL penicillin, 100 μg/mL streptomycin, and ECG (Endothelial Cell Growth Supplement) supplement (Innoprot, Vizcay, Spain). Human fibronectin (MerckMillipore, Madrid, Spain) at 5 μg/mL was used for cell attachment. Cells at passages 2-3 will be used for the experiments. For experimentation, HRECs were grown to confluence and then cell culture media was changed to medium supplemented with 1% FBS for 24 h and then exposed to different treatments.
Conditions treatments: The same conditions specified for the experiment in ARPE-19 cells were used.
Measurement of HREC permeability: Permeability in HREC monolayers were obtained on permeable supports at 12×10^5 cells/well (24 wells, PCF filters, Merk Millipore). Inserts were incubated for 48 hours at 37° C. in 5% CO2-air to form the monolayer. At the end, medium was serum depleted 24 h before to proceed with the treatments. The lower chamber was filled with 600 μL of complete EBM medium and the upper chamber with 100 μL of cell suspension in serum depleted (1%).
To detect changes in the permeability, 100 μg/ml of fluorescent FITC-DEXTRAN (Sigma, Madrid, Spain), was added to the upper side of the insert. Aliquots of 200 μL from the basal compartment was read in a SpectraMax Gemini (Molecular Devices, Sunnyvale, Calif.) at a wavelength of excitation/emission 485/528 nm every 30 min. Finally, the concentration of dextran was determined by extrapolation of the fluorescence reads in a standard curve. Each condition was tested in triplicate.

ARPE-19 cells [5] = experiment: ROS and cytokine/VEGF mRNA production by ARPE-19 monolayer cells in non-diabetic and diabetic milieu; assay type: cell-based, human; conditions: ARPE19 monolayer, 0.2 mg/mL; for ROS: ROS % to 25 mM D-Glucose; for IL-1β R.Q. mRNA / IL-6 R.Q. mRNA / IL-18 R.Q. mRNA / TNFα R.Q. mRNA / VEGF R.Q. mRNA: relative change vs 25 mM D-Gluc
Procedure: as §2, §3
• Proinflammatory cytokines were evaluated in ARPE-19 cells by RT-PCR and mRNA for IL-6, TNF-α, IL-1β, IL-18, VEGF, IL-10, FGF were measured using the double delta CT method 2-ΔΔCT with Cts values for the gene of interest and the endogenous human B-actin to obtain ΔCT; mRNA values were expressed as relative change with respect to the condition 25 mM D-Gluc. (ref: Livak K J, Analysis of Relative Gene Expression Data Using Real-Time Quantitative PCR and the 2-ΔΔCT Method, Methods, 2001, 25(4), 402-408, doi 10.1006/meth.2001.1262) • ROS production was evaluated using Cell Biolabs' OxiSelect™ Intracellular ROS Assay (Green Fluorescence) (Bionova, Madrid, Spain). The assay employs the cell-permeable fluorogenic probe 2′, 7′-Dichlorodihydrofluorescin diacetate (DCFH-DA), oxidized to highly fluorescent 2′, 7′-Dichlorodihydrofluorescein (DCF) by cellular ROS. • Endothelin-1, PDGF and VCAM-1 expression was analyzed in HREC monolayers by immunohistochemical analysis and by RT-PCR. • TJ expression (ZO) is analyzed in ARPE-19 and HREC monolayers by immunohistochemical analysis.

FGF-1 = molecular target: T1, FGF-1 (Homo sapiens, UniProt P05230); experiment: FGF-1 induced sprouting of HUVEC, spheroid-based cellular angiogenesis assay; assay type: cell-based; conditions: FGF-1 25 ng/mL preincubated with compound, 24 h
T1 construct: purchased Peprotech 100-17A
T1 sequence (P05230 whole entry): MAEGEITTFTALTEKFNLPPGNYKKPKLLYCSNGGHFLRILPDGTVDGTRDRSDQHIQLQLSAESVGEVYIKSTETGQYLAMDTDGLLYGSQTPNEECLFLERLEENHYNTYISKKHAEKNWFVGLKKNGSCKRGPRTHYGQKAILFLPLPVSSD
Summary of the method: (§4)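 Compound (final 100 down to 1.56×10^−6 M) was mixed with growth factor (final 25 ng/mL) for 30 min at 37°C, then added onto collagen-embedded 400-cell HUVEC spheroids.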

FGF-2 = molecular target: T2, FGF-2 (Homo sapiens, UniProt P09038); experiment: FGF-2 induced sprouting of HUVEC, spheroid-based cellular angiogenesis assay; assay type: cell-based; conditions: FGF-2 25 ng/mL preincubated with compound, 24 h
T2 construct: purchased Peprotech 100-18C
T2 sequence (P09038 134-288): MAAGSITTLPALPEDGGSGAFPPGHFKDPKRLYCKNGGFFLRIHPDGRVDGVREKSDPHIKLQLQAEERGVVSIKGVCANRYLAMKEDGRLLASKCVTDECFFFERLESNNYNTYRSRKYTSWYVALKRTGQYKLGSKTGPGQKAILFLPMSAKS
Summary of the method: as §4

VEGF-A = molecular target: T3, VEGF-A (Homo sapiens, UniProt P15692); experiment: VEGF-A induced sprouting of HUVEC, spheroid-based cellular angiogenesis assay; assay type: cell-based; conditions: VEGF-A 25 ng/mL preincubated with compound, 24 h, read-out: VEGF-A1 IC50
T3 construct: purchased ProQinase GmbH
T3 sequence (P15692 27-191 isoform P15692-4): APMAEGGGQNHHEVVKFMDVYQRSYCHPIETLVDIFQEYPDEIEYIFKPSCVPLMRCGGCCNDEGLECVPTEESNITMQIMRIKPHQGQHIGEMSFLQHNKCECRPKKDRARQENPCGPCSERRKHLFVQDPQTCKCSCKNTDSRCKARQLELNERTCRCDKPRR
Summary of the method: as §4

VEGFR-2 = molecular target: T4, VEGFR-2 (Homo sapiens, UniProt P35968); experiment: VEGF-165 induced phosphorylation of VEGF-Receptor on HUVEC; assay type: cell-based; conditions: HUVEC preincubated 60 min, VEGF165 25 ng/mL 2 min; read-out: VEGFR-Phosphorylation inhibition IC50
T4 construct: endogenous in cells; host or cells: primary HUVEC
T4 sequence (P35968 20-1356): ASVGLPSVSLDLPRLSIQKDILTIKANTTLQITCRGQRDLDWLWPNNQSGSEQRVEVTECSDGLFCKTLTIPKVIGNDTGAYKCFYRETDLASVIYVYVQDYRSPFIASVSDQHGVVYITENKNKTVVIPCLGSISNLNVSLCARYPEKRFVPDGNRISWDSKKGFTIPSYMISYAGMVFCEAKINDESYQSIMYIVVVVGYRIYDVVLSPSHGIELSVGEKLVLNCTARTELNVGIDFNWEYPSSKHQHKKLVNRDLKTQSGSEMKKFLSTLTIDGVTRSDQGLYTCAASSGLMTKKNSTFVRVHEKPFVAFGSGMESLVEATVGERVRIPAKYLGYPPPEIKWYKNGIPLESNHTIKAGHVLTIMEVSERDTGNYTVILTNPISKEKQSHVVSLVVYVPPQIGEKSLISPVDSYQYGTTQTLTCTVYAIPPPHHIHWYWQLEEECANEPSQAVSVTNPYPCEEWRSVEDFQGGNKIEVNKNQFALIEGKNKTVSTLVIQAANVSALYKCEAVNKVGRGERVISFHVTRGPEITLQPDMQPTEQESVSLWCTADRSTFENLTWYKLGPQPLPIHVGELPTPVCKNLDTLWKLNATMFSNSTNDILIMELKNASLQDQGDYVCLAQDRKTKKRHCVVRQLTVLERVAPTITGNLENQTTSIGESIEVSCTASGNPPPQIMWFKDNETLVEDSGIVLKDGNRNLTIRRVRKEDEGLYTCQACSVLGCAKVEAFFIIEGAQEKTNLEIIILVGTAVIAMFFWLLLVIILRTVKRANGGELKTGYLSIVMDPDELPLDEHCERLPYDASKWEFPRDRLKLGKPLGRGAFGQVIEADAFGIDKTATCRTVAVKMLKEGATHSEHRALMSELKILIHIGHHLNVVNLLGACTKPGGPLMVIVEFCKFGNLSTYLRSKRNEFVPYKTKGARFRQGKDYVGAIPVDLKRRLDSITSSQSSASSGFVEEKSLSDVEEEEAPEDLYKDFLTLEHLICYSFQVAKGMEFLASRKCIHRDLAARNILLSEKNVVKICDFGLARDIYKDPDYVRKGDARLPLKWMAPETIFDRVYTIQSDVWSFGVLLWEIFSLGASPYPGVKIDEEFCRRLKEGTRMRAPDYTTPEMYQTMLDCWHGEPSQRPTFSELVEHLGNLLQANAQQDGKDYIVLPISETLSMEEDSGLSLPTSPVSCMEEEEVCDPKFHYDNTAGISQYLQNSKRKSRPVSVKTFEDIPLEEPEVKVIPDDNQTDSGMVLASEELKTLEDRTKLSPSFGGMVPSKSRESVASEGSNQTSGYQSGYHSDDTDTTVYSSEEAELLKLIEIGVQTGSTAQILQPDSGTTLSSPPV

Human neutrophils [6] = experiment: Inhibition of ROS production in human neutrophils (isoluminol chemiluminescence); assay type: cell-based; conditions: Homo sapiens, Neutrophil, fMLP+TNF-α stimulated PMN
Summary of the method: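 Extracellular ROS measured as isoluminol-amplified chemiluminescence following 1 μM fMLP activation on fibrinogen-coated plates, readings every 25 sec over 250 sec minus HBSS/isoluminol background. Beforehand, cells were treated with compounds at 0.1, 0.3, 1, 3 or 10 μM (30 min, 37° C) and TNF-α (20 ng/ml, 10 min); duplicate or triplicate.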

Human neutrophils [7] = experiment: Neutrophil adhesion under static conditions; assay type: cell-based; conditions: fMLP-stimulated adhesion to fibrinogen; method: 40 μM and 80 μM, concentration of the value not stated
Summary of the method: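 Donor buffy-coat neutrophils (3×10^6/ml, PBS with Ca/Mg, 10% FCS, pH 7.2) preincubated 30 min at 37° C with 40 μM or 80 μM compound, then stimulated 1 min at 37° C with 1 nM fMLP on fibrinogen-coated glass. Adherent cells fixed and counted by computer; mean ± SD, unpaired t-test.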

[8] = diabetic milieu (25 mM D-Gluc + VEGF, TNF-α, IL-1β)

With `CC(OC(=O)c1cc(NC(=O)c2cc(O)c(C(=O)Nc3ccc(O)c(C(=O)OC(C)OC(=O)C(C)(C)C)c3)cc2O)ccc1O)OC(=O)C(C)(C)C` (stereo not shown) [Ic-007a-pive2, 1-(2,2-dimethylpropanoyloxy)ethyl 5-[[4-[[3-[1-(2,2-dimethylpropanoyloxy)ethoxycarbonyl]-4-hydroxy-phenyl]carbamoyl]-2,5-dihydroxy-benzoyl]amino]-2-hydroxybenzoate] the “remaining after 1 h (mouse plasma)” value [1] was 65%, the half-life [1] was 1.04 h and the half-life [2] was over 3 h.

With “bevacizumab: comparator in ARPE-19 and HREC permeability experiments [reference compound]” the “% permeability ARPE19” value (ARPE-19 cells [3]; No 9: 25 mM D-Gluc + 0.2 mg/mL) was 109.5 ± 22.9%, the “% permeability ARPE19” value (ARPE-19 cells [3]; No 17: 25 mM D-Gluc + 0.2 mg/mL + VEGF, TNF-α, (diabetic milieu)) was 120.7 ± 30.1% and the “% permeability HREC” value ([4]; No 9: 25 mM D-Gluc + 0.2 mg/mL) was 127.1 ± 26.2%. For the same molecule, the “% permeability HREC” value ([4]; No 17: 25 mM D-Gluc + 0.2 mg/mL + VEGF, TNF-α, IL-β (diabetic milieu)) was 129.0 ± 35.3%, the ROS (ARPE-19 cells [5]; 25 mM D-Gluc) was 110 ± 54% and the “IL-1β R.Q. mRNA” value (ARPE-19 cells [5]; 25 mM D-Gluc) was 1.46 ± 0.72 R.Q. For the same molecule, the “IL-6 R.Q. mRNA” value (ARPE-19 cells [5]; 25 mM D-Gluc) was 0.64 ± 0.34 R.Q, the “IL-18 R.Q. mRNA” value (ARPE-19 cells [5]; 25 mM D-Gluc) was 0.09 ± 0.01 R.Q and the “TNFα R.Q. mRNA” value (ARPE-19 cells [5]; 25 mM D-Gluc) was 0.46 ± 0.63 R.Q. For the same molecule, the “VEGF R.Q. mRNA” value (ARPE-19 cells [5]; 25 mM D-Gluc) was 1.68 ± 0.83 R.Q, the ROS (ARPE-19 cells [5]; [8]) was 111 ± 50% and the “IL-1β R.Q. mRNA” value (ARPE-19 cells [5]; [8]) was 31.22 ± 12.65 R.Q. The “IL-6 R.Q. mRNA” value (ARPE-19 cells [5]; [8]) was 32.35 ± 13.48 R.Q, the “IL-18 R.Q. mRNA” value (ARPE-19 cells [5]; [8]) was 0.53 ± 0.04 R.Q and the “TNFα R.Q. mRNA” value (ARPE-19 cells [5]; [8]) was 1.37 ± 0.27 R.Q. For the same molecule, the “VEGF R.Q. mRNA” value (ARPE-19 cells [5]; [8]) was 3.88 ± 0.68 R.Q.

In the case of `O=C(O)c1cc(O)cc(CS(=O)(=O)Cc2cc(O)cc(C(=O)OCCN3CCOCC3)c2O)c1O` [IVc-059a-mpe1, 2,5-Dihydroxy-3-[[2,5-hydroxy-3-(2-morpholinoethoxycarbonyl)phenyl]methylsulfonyl-methyl]benzoic acid], the “Stability in mouse plasma (in words)” value [1] was “stable up to 60 min”.

With `CC(OC(=O)c1cc(NC(=O)c2cc(O)c(C(=O)Nc3ccc(O)c(C(=O)O)c3)cc2O)ccc1O)OC(=O)C(C)(C)C` (stereo not shown) [Ic-007a-pive1, 5-[[4-[[3-[1-(2,2-dimethylpropanoyloxy)ethoxycarbonyl]-4-hydroxy-phenyl]carbamoyl]-2,5-dihydroxy-benzoyl]amino]-2-hydroxy-benzoic acid] the “remaining after 1 h (mouse plasma)” value [1] was 49%, the half-life [1] was 0.743 h and the half-life [2] was over 3 h.

With `CC(OC(=O)c1cc(O)cc(CS(=O)(=O)Cc2cc(O)cc(C(=O)O)c2O)c1O)OC(=O)C(C)(C)C` (stereo not shown) [IVc-059a-pive1, 3-[[3-[1-(2,2-Dimethylpropanoyloxy)ethoxycarbonyl]-2,5-dihydroxy-phenyl]methylsulfonyl-methyl]-2,5-dihydroxy-benzoic acid] the “Stability in mouse plasma (in words)” value [1] was “Hydrolyzed Rapidly”.

`O=C(O)c1cc(O)c(C(=O)NCc2ccccc2C(=O)O)cc1O` [Ia-053a, 4-(2-Carboxyphenylmethylaminocarbonyl)-2,5-dihydroxybenzoic acid] gave a pIC50 (FGF-1) of at most 3.82, a pIC50 (FGF-2) of 3.91 and a pIC50 (VEGF-A) of 3.68. For the same molecule, the pIC50 (VEGFR-2) was at most 4.00, the inhibition at 0.3 µM (Human neutrophils [6]; 0.3 μM) was 52.9% and the pIC50 (Human neutrophils [6]) was 5.60. It also gave a Neutrophil adhesion inhibition (Human neutrophils [7]) of 18.67%.
